From patent US10040813B2, “Compounds as positive allosteric modulators for erythropoietin and erythropoietin receptor to treat erythropoietin deficiency diseases” (ACAHEALTH PHARMA & BIOTECH CO., LTD., priority 2015, dated 2018)
“Also recorded” adds a separate entry of the source.

Test system: cisplatin-induced nephropathy in mice
Test: Cisplatin-induced nephropathy mouse model (anaemia and renal function)
Type: in vivo
Protocol: Forty six-to-seven-week-old C57Bl/6J male mice were i.p. injected with three doses of cisplatin (Sigma-Aldrich), following the scheme of 7, 6, and 6 mg·kg-1 body weight, at 4 to 5 day intervals, and the normal group (n=4) was injected with saline (FIG. 1 scheme). On day 12, the collected serum samples were assayed for the urea nitrogen content (BUN). Mice with BUN values greater than 80 mg·dL-1 were chosen for the experiment. An average seventy percent of injected mice were successful induced renal dysfunction, and the ineffective mice were excluded from the EH202 treating experiments. The mice were subsequently divided randomly into 4 cohorts comprising the control (Ctrl, n=6) and three EH202-treated groups (n=5 to 6 for each group) for an additional 2 weeks. Blood samples from all the mice were collected every 5 days. The RBC numbers were determined from the complete blood cell count using a Sysmex Kx-21 haematology analyser (Sysmex America), and the serum BUN and creatinine levels were determined using a commercial kit (Randox Laboratories Ltd. United Kingdom). All results are expressed as the mean±SEM. The statistical analysis was performed using Student's t-test. One-way ANOVA was used to examine the differences across the animal experimental groups. The posthoc differences between the means of the experimental groups were determined via Tukey's test. P<0.05 was considered significant.

## OC[C@H]1OC(Oc2c(/C=C/c3ccc(F)cc3)ccc3ccccc23)[C@H](O)[C@@H](O)[C@@H]1O (stereo partly drawn) [EH202, (Naphthanol-4′fluoro-stilbenzene)-1-O-β-D-glycoside]
10, 30 and 90 mg·kg-1 treatment groups, day 29, FIG. 2C
  BUN levels: accelerates the recovery from renal dysfunction; also recorded: significantly recovered
30 and 90 mg·kg-1, FIGS. 2D and 2E
  recovery of anaemia (HGB level, RBC numbers): increasing recovery of anaemia
30 and 90 mg·kg-1 for 10 days, day 24, FIG. 2B
  recovery of renal dysfunction (creatinine level in the peripheral blood): accelerates the recovery from renal dysfunction; also recorded: almost complete recovery of renal dysfunction
Day 24, FIG. 2D
  recovery from anemia, hemoglobin (HGB) level in the peripheral blood: accelerates the recovery from anemia
Day 29, FIG. 2E
  recovery from anemia, RBC numbers in the peripheral blood: accelerates the recovery from anemia
